Reference: US20180116849A1, “SYSTEMS AND METHODS FOR DETERMINING FAILURE OF INTRAGASTRIC DEVICES” (Obalon Therapeutics, Inc., priority 2015, published 2018)
Entries after “also recorded” stand apart in the source; their conditions may differ. Counter-ions that a name gives are not always drawn.

Key:
[1] = Colour, fluorescence or emission of the dye; assay type: physicochemical; settings: dyes identified as indicator for balloon rupture
Method: Experiments were conducted to identify appropriate dyes that may be incorporated into their gastric balloon device to function as an indicator for balloon rupture. The characteristics of the dyes considered for selection included the following: acceptable toxicology profile, acceptable solubility, intensely absorbing (high color intensity), stable in the gastric environment, and stable during excretion so as to be visually identified by the patient or a caregiver.

[2] = cited from earlier work; for Solubility in water: The Merck Index
[3] = tested on: mice; settings: The Merck Index; cited from earlier work
[4] = tested on: rat; settings: cited from earlier work
[5] = after the consumption of asparagus; cited from earlier work
[6] = cited from earlier work; for Side-effect of turning urine a color: drugs that may be a source of false positives for balloon leakage; for Urine color produced: humans / patients exposed to the dye
[7] = Tables 4 and 5; cited from earlier work
[8] = The Merck Index; cited from earlier work
[9] = Meng et al. 2013, cited from earlier work
[10] = Tables 4 and 5; cited from earlier work; remark: listed apart in the source
[11] = tested on: patients; settings: The Merck Index; cited from earlier work

O=C(O)C1=C/C(=C/C=[N+]2/c3cc(O)c(OC4OC(CO)[C@@H](O)C(O)C4O)cc3CC2C(=O)[O-])CC(C(=O)O)N1 (stereo in doubt) [betanin]
Emission colour of dye identified as suitable [1]: red emission

CN(C)CCC=C1c2ccccc2CCc2ccccc21 [Amitriptyline Hydrochloride, reference compound]
Solubility in chloroform (in words) ([2]; chloroform, salt): Salt is freely soluble | Solubility in water (in words) ([2]; water): Salt is freely soluble | LD50 (mice) [3]: 350 mg/kg | LD50 (rats) ([4]; rats, The Merck Index): 380 mg/kg

O=C(O)C1CSSC1 [Asparagusic Acid]
Urine odor [5]: characteristic odor to urine

Cc1cc2nc3c(=O)[nH]c(=O)nc-3n(C[C@H](O)[C@H](O)[C@H](O)CO)c2cc1C [B vitamins (e.g. Riboflavin), Riboflavin]
Solubility ([2]; water): Solubility: 1 g in 3 L g in 3 L water

COc1cccc2c1C(=O)c1c(O)c3c(c(O)c1C2=O)C[C@@](O)(C(C)=O)C[C@@H]3O[C@H]1C[C@H](N)[C@H](O)[C@H](C)O1 [Daunorubicin]
Side-effect of turning urine a color [6]: red

CCN(Cc1cccc(S(=O)(=O)O)c1)c1ccc(C(=C2C=CC(=[N+](CC)Cc3cccc(S(=O)(=O)O)c3)C=C2)c2ccc(O)cc2S(=O)(=O)[O-])cc1 [Fast Green FCF]
Solubility in alcohols (in words) ([2]; alcohols): Very soluble in water, | Solubility in other organic solvents (in words) ([2]; other organic solvents): alcohols, insoluble in other | Solubility in water (in words) ([2]; water): Very soluble in water, | Toxicology (in words) [7]: may cause eye injury | Emission colour of dye identified as suitable [1]: green emission | LD50 (rat) ([4]; rat, in vivo): LD50 (rat) > 2 g/kg;

O=C1/C(=C2\Nc3ccc(S(=O)(=O)[O-])cc3C2=O)Nc2ccc(S(=O)(=O)[O-])cc21.[Na+].[Na+] [Indigo carmine]
Solubility in water [2]: 1.0 g per 100 mL of water | pH indicator-blue at pH [8]: pH indicator-blue at pH < 11 | Emission colour of dye identified as suitable [1]: blue emission | LD50 (rat, oral) ([4]; rat, oral, Baker MSDS sheet): oral) = 2 g/kg (Baker

CN(C)c1ccc2c(c1)Sc1cc(N(C)C)ccc1N2 [Leukomethylene blue]
Excretion in urine ([9]; urine): excreted mostly unaltered

Cc1cc2nc3[nH]c(=O)[nH]c(=O)c3nc2cc1C [Lumichrome]
Solubility (in words, solvent not stated) [2]: poor solubility | Solubility in hot water (in words) ([2]; hot water): Sparingly soluble in hot water | Colour / fluorescence (Chemical Properties) [10]: Blue fluorescence | Toxicology (in words) [7]: None | Urine color produced [6]: blue-green urine

Cc1cc2nc3c(=O)[nH]c(=O)nc-3n(C)c2cc1C [Lumiflavine]
Solubility (in words, solvent not stated) [2]: poor solubility | Solubility in water (in words) ([2]; water): Very sparingly soluble in | Colour / fluorescence (Chemical Properties) [10]: Green fluorescence | Toxicology (in words) [7]: None | Urine color produced [6]: blue-green urine

COc1ccccc1OCC(O)COC(N)=O (stereo not drawn) [Methocarbamol, reference compound]
Water soluble ([2]; @ 20 ° C.): Water soluble 2.5 g/ g/100 mL | Toxicology: tolerability in patients [11]: Generally well-

COc1ccc2[nH]c([S+]([O-])Cc3ncc(C)c(OC)c3C)nc2c1 (stereo not drawn) [Omeprazole]
Side-effect of turning urine a color [6]: blue green

O=C(O)c1cc(O)c2c(c1)[C@H]([C@H]1c3cc(C(=O)O)cc(O)c3C(=O)c3c(O[C@@H]4O[C@H](CO)[C@@H](O)[C@H](O)[C@H]4O)cccc31)c1cccc(O[C@@H]3O[C@H](CO)[C@@H](O)[C@H](O)[C@H]3O)c1C2=O [Sennoside A]
Solubility in water (in words) ([2]; water): insoluble in water.

O=C(O)c1cc(O)c2c(c1)[C@@H]([C@H]1c3cc(C(=O)O)cc(O)c3C(=O)c3c(O[C@@H]4O[C@H](CO)[C@@H](O)[C@H](O)[C@H]4O)cccc31)c1cccc(O[C@@H]3O[C@H](CO)[C@@H](O)[C@H](O)[C@H]3O)c1C2=O [Sennoside B]
Solubility in water compared with Sennoside A ([2]; water, Merck): Sennoside B is more

Nc1nc(N)c2nc(-c3ccccc3)c(N)nc2n1 [Triamterene, reference compound]
Solubility in water [2]: 1 part soluble in 1000 part soluble in 1000 parts water | Toxicology: tolerability in patients [11]: Generally well- | Emission colour of dye identified as suitable [1]: blue emission

CCC(=O)O[C@@H](O[P@](=O)(CCCCc1ccccc1)CC(=O)N1C[C@H](C2CCCCC2)C[C@H]1C(=O)O)C(C)C [fosinopril]
Side-effect of turning urine a color [6]: blue green

CN(C)c1ccc2nc3ccc(N(C)C)cc3[s+]c2c1.[Cl-] [methylene blue]
Conversion on passage through the gastrointestinal tract ([9]; gastrointestinal tract): reduced to leukomethylene blue | Urine color produced [6]: blue-green discoloration of their urine; also recorded: blue-green color

Nc1ccc(/N=N/c2ccccc2)c(N)n1 [phenazopyridine]
Side-effect of turning urine a color [6]: red

CC[C@H](C)C(=O)O[C@H]1C[C@H](O)C=C2C=C[C@H](C)[C@H](CC[C@@H](O)C[C@@H](O)CC(=O)O)[C@H]21 [pravastatin]
Side-effect of turning urine a color [6]: blue green

CC(C)c1cccc(C(C)C)c1O [propofol]
Side-effect of turning urine a color [6]: green colored urine

CO[C@H]1/C=C/O[C@@]2(C)Oc3c(C)c(O)c4c(O)c(c(/C=N/N5CCN(C)CC5)c(O)c4c3C2=O)NC(=O)/C(C)=C\C=C\[C@H](C)[C@H](O)[C@@H](C)[C@@H](O)[C@@H](C)[C@H](OC(C)=O)[C@@H]1C [rifampin]
Side-effect of turning urine a color [6]: red

Betalain [Betalain (including betanin)]
Colour / fluorescence (Chemical Properties) [10]: Colored Red
